Values joined by “and” are separate entries in the source; they are usually repeats but may differ in a detail not shown here. Equal entries are not always repeated. Inconclusive results and toxic doses are left out.
System: L1210 leukemia ip in BDF1 mice, survival T/C
Experiment: NCI In Vivo Anticancer Drug Screen. Data for tumor model L1210 Leukemia (intraperitoneal) in B6D2F1 (BDF1) mice
Conditions: endpoint: mean survival time, higher = longer survival
In short: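 Transplanted-tumor mice were given test agent; controls received vehicle only. Survival readings from the two groups were divided (treated over control).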

[1] = dose: 100.0 mg/kg/injection, schedule: Q04DX002 (ip), vehicle: saline with Tween-80
[2] = dose: 100.0 mg/kg/injection, schedule: Q01DX001 (ip), vehicle: Klucel (hydroxypropylcellulose) (HPC)
[3] = dose: 400.0 mg/kg/injection, schedule: Q01DX001 (ip), vehicle: Klucel (hydroxypropylcellulose) (HPC)
[4] = dose: 100.0 mg/kg/injection, schedule: Q04DX003 (ip), vehicle: saline with Tween-80
[5] = dose: 200.0 mg/kg/injection, schedule: Q04DX003 (ip), vehicle: saline with Tween-80
[6] = dose: 400.0 mg/kg/injection, schedule: Q04DX003 (ip), vehicle: saline with Tween-80
[7] = dose: 100.0 mg/kg/injection, schedule: Q01DX009 (ip), vehicle: saline
[8] = dose: 100.0 mg/kg/injection, schedule: Q04DX003 (ip), vehicle: saline
[9] = dose: 200.0 mg/kg/injection, schedule: Q01DX009 (ip), vehicle: saline
[10] = dose: 200.0 mg/kg/injection, schedule: Q04DX003 (ip), vehicle: saline
[11] = dose: 400.0 mg/kg/injection, schedule: Q04DX003 (ip), vehicle: saline
[12] = dose: 100.0 mg/kg/injection, schedule: Q04DX003 (ip), vehicle: Klucel (hydroxypropylcellulose) (HPC)
[13] = dose: 200.0 mg/kg/injection, schedule: Q04DX003 (ip), vehicle: Klucel (hydroxypropylcellulose) (HPC)
[14] = dose: 400.0 mg/kg/injection, schedule: Q04DX003 (ip), vehicle: Klucel (hydroxypropylcellulose) (HPC)
[15] = dose: 100.0 mg/kg/injection, schedule: Q01DX009 (ip), vehicle: saline with Tween-80
[16] = dose: 200.0 mg/kg/injection, schedule: Q01DX009 (ip), vehicle: saline with Tween-80

## CCCCNC(C)(C)C(SS)c1cccs1 (stereo not drawn)
dose: 100.0 mg/kg/injection, schedule: Q04DX003 (ip), vehicle: saline sonified
  T/C: 96 % of control
dose: 200.0 mg/kg/injection, schedule: Q04DX003 (ip), vehicle: saline sonified
  T/C: 92 % of control
dose: 400.0 mg/kg/injection, schedule: Q04DX003 (ip), vehicle: saline sonified
  T/C: 96 % of control

## O=C1CCC/C1=C/c1ccco1
[1]
  T/C: 105 % of control
dose: 200.0 mg/kg/injection, schedule: Q04DX002 (ip), vehicle: saline with Tween-80
  T/C: 105 % of control
dose: 400.0 mg/kg/injection, schedule: Q04DX002 (ip), vehicle: saline with Tween-80
  T/C: 94 % of control

## CCCCn1c(C)nc2c([N+](=O)[O-])cc(C(F)(F)F)cc21
[2]
  T/C: 104 % of control
[3]
  T/C: 98 % of control

## O=C(O)c1ccccc1C(=O)N1CCCC1
dose: 100.0 mg/kg/injection, schedule: Q04DX002 (ip), vehicle: Klucel (hydroxypropylcellulose) (HPC)
  T/C: 96 % of control
dose: 200.0 mg/kg/injection, schedule: Q04DX002 (ip), vehicle: Klucel (hydroxypropylcellulose) (HPC)
  T/C: 86 % of control
dose: 400.0 mg/kg/injection, schedule: Q04DX002 (ip), vehicle: Klucel (hydroxypropylcellulose) (HPC)
  T/C: 93 % of control

## CSc1ccc([PH+](c2ccc(SC)cc2)c2ccc(SC)cc2)cc1.CSc1ccc([PH+](c2ccc(SC)cc2)c2ccc(SC)cc2)cc1.[Cl][Hg][Cl]
dose: 50.0 mg/kg/injection, schedule: Q01DX009 (ip), vehicle: Klucel (hydroxypropylcellulose) (HPC)
  T/C: 89 % of control
dose: 100.0 mg/kg/injection, schedule: Q01DX009 (ip), vehicle: Klucel (hydroxypropylcellulose) (HPC)
  T/C: 92 % of control and 98 % of control
dose: 200.0 mg/kg/injection, schedule: Q01DX009 (ip), vehicle: Klucel (hydroxypropylcellulose) (HPC)
  T/C: 94 % of control and 103 % of control

## C=C(C)C1(O)C=CC(=O)O1 (stereo not drawn)
dose: 12.5 mg/kg/injection, schedule: Q01DX009 (ip), vehicle: saline
  T/C: 102 % of control
dose: 25.0 mg/kg/injection, schedule: Q01DX009 (ip), vehicle: saline
  T/C: 100 % of control
dose: 50.0 mg/kg/injection, schedule: Q01DX009 (ip), vehicle: saline
  T/C: 107 % of control

## CCC(C(=O)c1ccc(F)cc1)C(O)(C(F)(F)F)C(F)(F)F (stereo not drawn)
[4]
  T/C: 104 % of control
[5]
  T/C: 103 % of control
[6]
  T/C: 101 % of control

## COc1cc(C)c2c(OC)ccc(OC)c2n1
dose: 100.0 mg/kg/injection, schedule: Q01DX001 (ip), vehicle: saline
  T/C: 94 % of control
dose: 200.0 mg/kg/injection, schedule: Q01DX001 (ip), vehicle: saline
  T/C: 97 % of control
dose: 400.0 mg/kg/injection, schedule: Q01DX001 (ip), vehicle: saline
  T/C: 103 % of control

## CC(=O)OS(=O)(=O)c1ccc(C)cc1
[7]
  T/C: 98 % of control
[8]
  T/C: 94 % of control
[9]
  T/C: 90 % of control
[10]
  T/C: 92 % of control
[11]
  T/C: 89 % of control

## CCCCS(=O)(=O)N1CCCCC1C (stereo not drawn)
dose: 25.0 mg/kg/injection, schedule: Q04DX002 (ip), vehicle: saline with Tween-80
  T/C: 96 % of control
dose: 50.0 mg/kg/injection, schedule: Q04DX002 (ip), vehicle: saline with Tween-80
  T/C: 96 % of control
[1]
  T/C: 86 % of control

## Cc1ccccc1NC(=S)Nc1ccccc1
dose: 100.0 mg/kg/injection, schedule: Q04DX002 (ip), vehicle: gum acacia
  T/C: 96 % of control
dose: 200.0 mg/kg/injection, schedule: Q04DX002 (ip), vehicle: gum acacia
  T/C: 96 % of control
dose: 400.0 mg/kg/injection, schedule: Q04DX002 (ip), vehicle: gum acacia
  T/C: 89 % of control

## CC(=Nc1ccc(Cl)cc1)Nc1ccc(Cl)cc1
dose: 62.5 mg/kg/injection, schedule: Q01DX009 (ip), vehicle: Klucel (hydroxypropylcellulose) (HPC)
  T/C: 92 % of control
dose: 125.0 mg/kg/injection, schedule: Q01DX009 (ip), vehicle: Klucel (hydroxypropylcellulose) (HPC)
  T/C: 96 % of control
dose: 250.0 mg/kg/injection, schedule: Q01DX009 (ip), vehicle: Klucel (hydroxypropylcellulose) (HPC)
  T/C: 100 % of control

## CC(C)c1ccc(C(=O)Nc2ccc(OCCCc3c(N)nc(N)nc3N)cc2)cc1S(=O)(=O)F
[2]
  T/C: 93 % of control
dose: 200.0 mg/kg/injection, schedule: Q01DX001 (ip), vehicle: Klucel (hydroxypropylcellulose) (HPC)
  T/C: 98 % of control
[3]
  T/C: 96 % of control

## Cc1c2oc3c(C)c(N)cc(C(=O)NC4C(=O)NC(C(C)C)C(=O)N5CCCC5C(=O)N(C)CC(=O)N(C)C(C(C)C)C(=O)OC4C)c3nc-2c(C(=O)NC2C(=O)NC(C(C)C)C(=O)N3CCCC3C(=O)N(C)CC(=O)N(C)C(C(C)C)C(=O)OC2C)c(N)c1=O (stereo not drawn)
dose: 75.0 micrograms/kg/injection, schedule: Q01DX009 (ip), vehicle: saline + alcohol
  T/C: 121 % of control
dose: 150.0 micrograms/kg/injection, schedule: Q01DX009 (ip), vehicle: saline + alcohol
  T/C: 113 % of control
dose: 200.0 micrograms/kg/injection, schedule: Q01DX009 (ip), vehicle: saline + alcohol
  T/C: 102 % of control
dose: 300.0 micrograms/kg/injection, schedule: Q01DX009 (ip), vehicle: saline + alcohol
  T/C: 90 % of control
dose: 300.0 micrograms/kg/injection, schedule: Q04DX003 (ip), vehicle: saline + alcohol
  T/C: 119 % of control
dose: 800.0 micrograms/kg/injection, schedule: Q04DX003 (ip), vehicle: saline + alcohol
  T/C: 106 % of control
dose: 1200.0 micrograms/kg/injection, schedule: Q04DX003 (ip), vehicle: saline + alcohol
  T/C: 87 % of control

## CCN(CC)CCN1C(=O)c2ccc3c4c(ccc(c24)C1=O)C(=O)N(CCN(CC)CC)C3=O
dose: 6.25 mg/kg/injection, schedule: Q01DX001 (ip), vehicle: saline
  T/C: 105 % of control
dose: 12.5 mg/kg/injection, schedule: Q01DX001 (ip), vehicle: saline
  T/C: 98 % of control

## CC(C)N(c1ccc(C(=NO)c2ccc(N(C(C)C)C(C)C)cc2)cc1)C(C)C
[12]
  T/C: 90 % of control
[13]
  T/C: 88 % of control
[14]
  T/C: 92 % of control

## COc1cc(Nc2c3ccccc3nc3ccccc23)ccc1NS(C)(=O)=O
dose: 10.0 mg/kg/injection, schedule: Q01DX009 (ip), vehicle: saline with Tween-80
  T/C: 154 % of control

## C1=CC2C3C=CC(CC3)C2CC1 (stereo not drawn)
[4]
  T/C: 106 % of control
[5]
  T/C: 97 % of control
[6]
  T/C: 87 % of control

## COC(C)(OC)C(N)=O
[15]
  T/C: 96 % of control
[12]
  T/C: 94 % of control
[16]
  T/C: 111 % of control
[13]
  T/C: 96 % of control
dose: 400.0 mg/kg/injection, schedule: Q01DX009 (ip), vehicle: saline with Tween-80
  T/C: 98 % of control
[14]
  T/C: 92 % of control

## CSc1ccc(OC(C)=O)cc1
dose: 50.0 mg/kg/injection, schedule: Q01DX009 (ip), vehicle: saline with Tween-80
  T/C: 94 % of control
[15]
  T/C: 91 % of control
[16]
  T/C: 102 % of control

## COc1cc(N)c2ncccc2c1SC
[7]
  T/C: 108 % of control
[8]
  T/C: 93 % of control
[9]
  T/C: 107 % of control
[10]
  T/C: 95 % of control
dose: 400.0 mg/kg/injection, schedule: Q01DX009 (ip), vehicle: saline
  T/C: 116 % of control
[11]
  T/C: 102 % of control

## COC(=O)Nc1ccc2nc(NC(=O)OC)[nH]c2c1
dose: 20.0 mg/kg/injection, schedule: Q01DX009 (ip), vehicle: other
  T/C: 97 % of control
dose: 40.0 mg/kg/injection, schedule: Q01DX009 (ip), vehicle: other
  T/C: 101 % of control
dose: 80.0 mg/kg/injection, schedule: Q01DX009 (ip), vehicle: other
  T/C: 104 % of control

## N#Cc1nc2ccccc2nc1C#N
dose: 12.5 mg/kg/injection, schedule: Q01DX009 (ip), vehicle: Klucel (hydroxypropylcellulose) (HPC)
  T/C: 102 % of control
dose: 12.5 mg/kg/injection, schedule: Q04DX003 (ip), vehicle: Klucel (hydroxypropylcellulose) (HPC)
  T/C: 97 % of control
dose: 25.0 mg/kg/injection, schedule: Q01DX009 (ip), vehicle: Klucel (hydroxypropylcellulose) (HPC)
  T/C: 102 % of control
dose: 25.0 mg/kg/injection, schedule: Q04DX003 (ip), vehicle: Klucel (hydroxypropylcellulose) (HPC)
  T/C: 88 % of control
